The values that follow come from patent EP0357495A2, “3'Azido-3'-deoxythymidine (AZT) derivatives active against the AIDS virus” (IRE-CELLTARG S.A., priority 1988, dated 1990).

Data set [1] has as its system virus HIV-1 (souche HTLV-IIIB). As to the kind of experiment: anti-HIV activity in HIV-infected MT4 cells (MTT method). Particulars: for activité (compared with AZT, in words): comparison with AZT. The data set is classed as cell-based. As to the method: (§1) Les produits (AZT, AZT-5′ hémisuccinyl et AZT 5′-leucyl) à différentes concentrations ont été mis en présence de cellules MT4 (4 X 10⁴ cellules par puits de microtray) infectées ou non avec 100 CCID₅₀ de virus HIV-1 (souche HTLV-IIIB). La CCID₅₀ représente la quantité de virus à rajouter pour obtenir une infection de 50 % des cellules (dose infectieuse de cellules en culture 50).
(§2) Après cinq jours d'incubation à 37°C, le nombre de cellules vivantes a été déterminé par la méthode au MTT, basée sur la réduction par les cellules vivantes du 3′-(4, 5-diméthylthiazol-2-yl)-2,5-diphényltétrazoliumbromide, jaune, en formazan, bleu. L'activité antivirale et la cytotoxicité sont exprimées sous forme de ED₅₀ et de CD₅₀. La CD₅₀ représente la dose qui tue 50 % des cellules non infectées et la ED₅₀ représente la dose qui protège 50 % des cellules de l'infection virale.
(§3) La même expérience que celle décrite ci-avant (exemple 9.1)) a été réalisée, mais en présence de thymidine 250 µM et de 2′déoxycytidine 500 µM. En effet l'AZT entre en compétition avec la thymidine au niveau des enzymes de phosphorylation qui vont le transformer en AZT triphosphate (AZT TP) qui est la forme active du produit. Un excès de thymidine réduit donc très fortement l'activité de l'AZT, ce qui se traduit par une ED₅₀ plus élevée. Par conséquent, si le dérivé de l'AZT doit son activité à la libération d'AZT qui à son tour est phosphorylé en AZT TP, un excès de thymidine aura également pour effet d'élever la ED₅₀ du dérivé. La thymidine étant cytotoxique à la concentration utilisée, il est nécessaire de rajouter de la 2′déoxycytidine pour empêcher cette toxicité.
(§4) Les protocoles expérimentaux sont ceux décrits à l'exemple 9 3.1) et 9 3).
A general note: Formazan colour is commonly taken as a measure of viable cells.

Data set [2] relates to cellules MT4. The data set is described as follows: cytotoxicity on non-infected MT4 cells (MTT method). To be noted: for toxicité (compared with AZT, in words): comparison with AZT. Format: cell-based. The method, then:
as §1, §2
as §3, with “En” for “La même expérience que celle décrite ci-avant (exemple 9.1)) a été réalisée, mais en présence de thymidine 250 µM et de 2′déoxycytidine 500 µM. En”
as §4

Data set [3] has as its system virus HIV-1 (souche HTLV-IIIB). The data set is described as follows: viral antigen expression in HIV-infected HUT-78 cells (indirect immunofluorescence, laser cytofluorescence). Format: cell-based. From the text:
Les produits (AZT et AZT-5′ hémisuccinyl) à différentes concentrations ont été mis en présence de cellules HUT-78 infectées par le virus HIV-1 (souche HTLV-IIIB) à une multiplicité d'infection de 0.4. Tous les quatre jours, 3/4 du milieu ont été remplacés par du milieu frais. Après douze jours, l'expression des antigènes viraux a été mesurée par immunofluorescence indirecte à l'aide d'un sérum anti-HIV-I positif, et par cytofluorescence laser, tel que décrit par Pauwels et al. J. Virol. Meth. 16, 171-185 (1987).
Des résultats sont exprimés dans le tableau 3 en ED₅₀ et en pourcentage d'effet protecteur selon la formule : [formula] TABLEAU 3

In data set [4] the test system is virus HIV-1 (souche HTLV-IIIB). As to the kind of experiment: viral antigen assay in HIV-infected human peripheral blood lymphocytes. Format: cell-based. Particulars: day 14 of culture. An excerpt:
Les lymphocytes ont été extraits d'un concentré plaquettaire par séparation sur gradient de Ficoll et élimination des adhérentes. Après 3 jours de stimulation par la phytohémaglutinine, ils ont été transférés dans un milieu additionné d'interleukine-2 (IL-2) est infectés par le virus HIV-1 (souche HTLV-IIIB). L'AZT et son dérivé 5′ hémisuccinate à différentes concentrations ont été rajoutés aux cellules au moment de l'infection.
Trois jours après l'infection, le milieu a été remplacé par du milieu frais additionné d'IL-2, contenant les produits aux concentrations désirées pour la moitié des cellules, et ne contenant plus de produit pour l'autre moitié. Ensuite, le milieu des cellules a été remplacé à moitié par du milieu frais additionné d'IL-2, contenant ou non les produits aux concentrations désirées, tous les 3 à 4 jours.
La multiplication du virus a été suivie par dosage des antigènes viraux dans les surnageants de culture (Innotest HIV-Organon Teknika).

The subject of data set [5] is virus MSV Moloney sarcoma virus. The data set is described as follows: in vivo activity in MSV-infected NMRI mice (survival, tumour appearance). The arrangement: species or system souris NMRI. As to the method:
L'AZT et ses dérivés selon l'invention ont été testés in vivo chez la souris NMRI (souriceaux de 2 jours) infectée par le virus MSV Moloney sarcoma virus). La drogue est adminitrée i.p. pendant 5 jours dans un volume de 25 µl/g de poids corporel. Le virus est inoculé dans la cuisse gauche de l'animal deux heures après la première administration de drogue. Les animaux sont contrôlés tous les jours selon trois critères : survie, apparition de la tumeur et poids (toxicité) pendant 50 jours. Les résultats sont repris au tableau 7 et dans les figures 8 à 11. [formula]
On entend par temps médian de survie le temps où la moitié des souris sont encore vivantes. [formula] Tableau 7

The nature of data set [6]: in vivo toxicity, intraperitoneal, 5-day-old NMRI mice. Also noted: species or system souriceaux NMRI. Particulars: AZT, i.p. The method, then: L'AZT et son dérivé 5′hémisuccinyl ont été administrés par voie infra-péritonéale à de souriceaux NMRI âgés de 5 jours (100 µl/g de poids corporel). Les animaux ont été contrôlés tous les jours selon 2 critères : survie et poids pendant 25 jours.
Les résultats sont repris au tableau 9. Les souriceaux traités n'ont pas montre de différence significative dans la prise de poids par rapport aux contrôles. Tableau 9

Data set [7] deals with HIV. Particulars: patients at AIDS stage, estimate; cited from earlier work.
Setting [8] is: tableau 2, non-infected MT4 cells, 5 days at 37°C, dose that kills 50 % of cells.
[9] abbreviates: tableau 6, MT-4, with thymidine(250 µM) + déoxy-cytidine (500 µM).
Setting [10] is: tableau 6, MT-4, without thymidine / déoxy-cytidine.
Where [11] appears, read: listed as dérive 5′-valine de l'AZT.
[12] abbreviates: tableau 4, MT-4, without thymidine / 2′déoxycytidine.

Where “and” joins values, the source holds several entries; their conditions need not be identical. Equal entries are not always repeated.

For `Cc1cn([C@H]2C[C@H](N=[N+]=[N-])[C@@H](COC(=O)[C@@H](N)CC(C)C)O2)c(=O)[nH]c1=O` [AZT-5′leucyl, 5′O-(L-leucyl)-3′-azido-3′déoxythymidine], in data set [1] (tableau 2, MT4 cells infected with 100 CCID₅₀ HIV-1, 5 days at 37°C, dose that protects 50 % of cells), the ED₅₀ result was “.005 µM”. Moreover, the SI in data set [1] (tableau 2, indice de sélectivité = CD₅₀ sur ED₅₀, MT4 cells) was determined as 5080. The “SI dérivé/SI AZT” value in data set [1] (tableau 2, ratio within the same experiment, MT4 cells) is 2.1. The CD₅₀ in data set [2] (setting [8]) stood at 25.4 µM.

In the case of `Cc1cn([C@H]2C[C@H](N=[N+]=[N-])[C@@H](COC(=O)[C@@H](NC(=O)OC(C)(C)C)C(C)C)O2)c(=O)[nH]c1=O` [AZT 5′tBoc valyl, 5′-O-(Boc-L-valyl)-3′-azido-3′-deoxythymidine], the “activité (compared with AZT, in words)” value in data set [1] is recorded as “activités comparables”. For the same compound, the ED₅₀ was 11.002 µM in data set [1] (setting [9]) and 0.0731 µM in data set [1] (setting [10]). Further, the SI in data set [1] (setting [9]) stood at 33; in data set [1] (setting [10]), 5740. Further, the “toxicité (compared with AZT, in words)” value in data set [2] is given as “moins toxiques que l'AZT”. In addition, the CD₅₀ in data set [2] (setting [9]) is recorded as 358 µM; in data set [2] (setting [10]), 420 µM.

Regarding `Cc1cn([C@H]2C[C@H](N=[N+]=[N-])[C@@H](COC(=O)[C@@H](N)C(C)C)O2)c(=O)[nH]c1=O` [AZT 5′valyl, 5′-O-(L-valyl)-3′-azido-3′-deoxythymidine], the entries for the “activité (compared with AZT, in words)” value in data set [1] (listed as AZT-5′valine) and in data set [1] (setting [11]) were “deux foix plus élevée que celle de l'AZT” and “plus actif que l'AZT”, respectively. Also, the ED₅₀ in data set [1] (setting [9]) is listed as 0.0987 µM; in data set [1] (setting [10]), 0.0007 µM. The SI in data set [1] (setting [9]) turned out to be 386; in data set [1] (setting [10]) it was 5083. In addition, the “toxicité (compared with AZT, in words)” value in data set [2] (listed as AZT-5′valine) was “comparable à celle de ce dernier”; in data set [2] (setting [11]), “comparable à celle de l'AZT”. The results for the CD₅₀ in data set [2] (setting [9]) and in data set [2] (setting [10]) were 38.16 µM and 3.65 µM, respectively.

In the case of `CC(=O)N[C@@H](CC(=O)OC[C@H]1O[C@@H](n2cc(C)c(=O)[nH]c2=O)C[C@@H]1N=[N+]=[N-])C(=O)O` [AZT-5′hémiaspartyl (isomère majeur), 5′-O-(N-acétyl-L-hemiaspartyl)-3′-azido-3′ déoxythymidine], the “activité (compared with AZT, in words)” value in data set [1] is given as “activités comparables”. In addition, the “indice de sélectivité (in words)” value in data set [1] (comparison with the hémisuccinyl derivative) was “comparable à celui du dérivé hémisuccinyl”. Also, the ED₅₀ in data set [1] (setting [9]) was determined as 4.000 µM; in data set [1] (setting [10]), 0.0161 µM. Also, the values for the SI in data set [1] (setting [9]) and in data set [1] (setting [10]) were 19 and 4046, respectively. Moreover, in data set [2], the “toxicité (compared with AZT, in words)” value is recorded as “moins toxiques que l'AZT”. Besides, the CD₅₀ in data set [2] (setting [9]) stood at 74.83 µM; in data set [2] (setting [10]), 65.06 µM.

Take `Cc1cn([C@H]2C[C@H](N=[N+]=[N-])[C@@H](CO)O2)c(=O)[nH]c1=O` [AZT, 3′azido-3′déoxythymidine, reference compound]: in data set [1] (de l'ordre de), the “indice de sélectivité” value is given as roughly 6000. The ED₅₀ is given as 0,0018 µM in data set [1] (setting [12]); 0.0018 µM in data set [1] (setting [10]); “ED₅₀ AZT = 2 µM” in data set [3] (HUT-78 cells, multiplicity of infection 0.4, day 12); 0.03 µM in data set [4] (durée d'administration 3 jours); 0.023 µM in data set [4] (durée d'administration 14 jours). Moreover, the SI in data set [1] (setting [12]) and in data set [1] (setting [10]) was 2780 each time. In addition, the CD₅₀ is 15.8 µM and 14.2 µM in data set [2] (setting [8]); 5.06 µM in data set [2] (setting [12]); 5,06 µM in data set [2] (setting [10]). The “Pourcentage d'effet protecteur” value in data set [3] (HUT-78, day 12, concentration 0.2 µM) was found to be 36%; in data set [3] (HUT-78, day 12, concentration 1 µM) it was 45%; in data set [3] (HUT-78, day 12, concentration 5 µM), 65%. Further, the figures for the “% ILS” value in data set [5] (AZT 5 mg/kg/jour i.p. 5 days), in data set [5] (AZT 25 mg/kg/jour i.p. 5 days) and in data set [5] (AZT 125 mg/kg/jour i.p. 5 days) were 26.8%, 74.8% and 74.8%, respectively. The “% ITL” value stood at 62.8% in data set [5] (AZT 5 mg/kg/jour i.p. 5 days), 190% in data set [5] (AZT 25 mg/kg/jour i.p. 5 days) and 137% in data set [5] (AZT 125 mg/kg/jour i.p. 5 days). In addition, the results for the “Temps moyen d'apparition de la tumeur” value in data set [5] (AZT 5 mg/kg/jour i.p. 5 days) and in data set [5] (AZT 125 mg/kg/jour i.p. 5 days) were 6.5 jours and 10.2 jours, respectively. Further, the “Temps moyen de survie” value is listed as 11.3 jours in data set [5] (AZT 5 mg/kg/jour i.p. 5 days), greater than 19.8 jours in data set [5] (AZT 25 mg/kg/jour i.p. 5 days) and greater than 23.3 jours in data set [5] (AZT 125 mg/kg/jour i.p. 5 days). For the same compound, the “Temps médian d'apparition de la tumeur” value came to 7.3 jours in data set [5] (AZT 5 mg/kg/jour i.p. 5 days), 13 jours in data set [5] (AZT 25 mg/kg/jour i.p. 5 days) and 10.6 jours in data set [5] (AZT 125 mg/kg/jour i.p. 5 days). Moreover, the results for the “Temps médian de survie” value in data set [5] (AZT 5 mg/kg/jour i.p. 5 days), in data set [5] (AZT 25 mg/kg/jour i.p. 5 days) and in data set [5] (AZT 125 mg/kg/jour i.p. 5 days) were 11.6 jours, 16 jours and 16 jours, respectively. Also, the “Survivants au jour 25” value in data set [6] (dose 1 g/kg poids corporel (équivalent AZT 1)) and in data set [6] (dose 2 g/kg poids corporel (équivalent AZT 2)) was 0% in each case. Further, in data set [7], the “augmentation du temps de survie des patients traités” value is roughly 18 mois.
